According to patent publication US20240174662A1, “SMALL MOLECULE INHIBITORS OF SALT INDUCIBLE KINASES” (Janssen Biotech, Inc., priority 2021, published 2024):

target: SIK2 (Homo sapiens (Human), UniProt Q9H0K1); experiment: SIK2 Enzymatic Assay Version 2 (High ATP); type: biochemical; settings: 3 mM ATP and 200 μM HDAC5tide final, ADP-Glo Max luminescence
Method: All steps were performed at room temperature. Compounds were pre-plated onto an assay plate using an Echo acoustic dispenser (Labcyte, […] or […]) at 80 nL per well. Enzyme prepared in assay buffer at 6 nM (2× final concentration) was added at 4 μL per well using the Multidrop Combi (Thermo Fisher-used for all additions in this assay) to the assay plate, spun for 1 min at 1000 rpm (Allegra 6KR Beckman Coulter centrifuge), and incubated with compound for 30 minutes. […] ADP-Glo Max Reagent (prepared and aliquoted as per manufacturer instructions) was then added at 8 μL per well, spun and incubated for 2 hours. ADP-Glo Max Detection (prepared and aliquoted as per manufacturer instructions) was added at 8 μL per well to the assay plate, which was spun and incubated for 1 hour. The plate was then read on the Pherastar (BMG Labtech) using a luminescence read. Gain was set between 2200-2500.

Sequence of SIK2 (Q9H0K1 whole entry, species assumed): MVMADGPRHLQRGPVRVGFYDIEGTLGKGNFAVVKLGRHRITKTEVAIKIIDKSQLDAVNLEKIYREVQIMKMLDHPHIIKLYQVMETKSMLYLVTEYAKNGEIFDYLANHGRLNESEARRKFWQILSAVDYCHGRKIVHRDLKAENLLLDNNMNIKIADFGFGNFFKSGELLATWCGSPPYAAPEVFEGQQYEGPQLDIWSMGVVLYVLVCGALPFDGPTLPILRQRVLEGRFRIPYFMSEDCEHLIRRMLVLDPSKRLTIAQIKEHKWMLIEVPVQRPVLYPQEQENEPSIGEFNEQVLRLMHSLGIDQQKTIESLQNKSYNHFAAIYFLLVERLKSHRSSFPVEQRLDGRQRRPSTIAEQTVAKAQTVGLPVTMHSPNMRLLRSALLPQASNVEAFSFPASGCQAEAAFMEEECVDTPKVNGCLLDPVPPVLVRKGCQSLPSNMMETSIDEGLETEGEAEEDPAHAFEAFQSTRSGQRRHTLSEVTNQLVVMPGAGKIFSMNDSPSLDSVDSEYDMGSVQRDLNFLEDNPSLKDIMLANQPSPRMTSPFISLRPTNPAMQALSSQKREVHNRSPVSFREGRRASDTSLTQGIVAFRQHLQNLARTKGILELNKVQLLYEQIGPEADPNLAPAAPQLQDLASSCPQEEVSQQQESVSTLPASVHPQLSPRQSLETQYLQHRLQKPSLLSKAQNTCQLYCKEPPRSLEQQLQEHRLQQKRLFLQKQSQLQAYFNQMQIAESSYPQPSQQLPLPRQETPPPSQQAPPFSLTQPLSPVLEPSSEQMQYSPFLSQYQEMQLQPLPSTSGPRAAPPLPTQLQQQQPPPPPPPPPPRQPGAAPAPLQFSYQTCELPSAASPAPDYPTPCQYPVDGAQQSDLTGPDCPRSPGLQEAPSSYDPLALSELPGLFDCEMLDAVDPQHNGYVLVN

Compound | IC50 [nM]
CN1CC2(CCOCC2)C1COc1cnn(C)c1-c1ccn2nc(NC(=O)C3CC3)cc2c1 (racemic) [Example 13, (rac)-N-[5-[2-methyl-4-[(2-methyl-7-oxa-2-azaspiro[3.5]nonan-3-yl)methoxy]pyrazol-3-yl]pyrazolo[1,5-a]pyridin-2-yl]cyclopropanecarboxamide] | 71.5
CN1CC2(CC2)C1COc1cnn(C)c1-c1ccn2nc(NC(=O)C3CC3)cc2c1 (racemic) [Example 51, (rac)-N-[5-[2-methyl-4-[(5-methyl-5-azaspiro[2.3]hexan-6-yl)methoxy]pyrazol-3-yl]pyrazolo[1,5-a]pyridin-2-yl]cyclopropanecarboxamide] | 47
CN1CCC1(C)COc1cnn(C)c1-c1ccn2nc(NC(=O)C3CC3)cc2c1 (racemic) [Example 54, (rac)-N-[5-[4-[(1,2-dimethylazetidin-2-yl)methoxy]-2-methyl-pyrazol-3-yl]pyrazolo[1,5-a]pyridin-2-yl]cyclopropanecarboxamide] | 178
CN1CC(F)(F)C1COc1cnn(C)c1-c1ccn2nc(NC(=O)C3CC3)cc2c1 (racemic) [Example 60, rac-N-[5-[4-[(3,3-difluoro-1-methyl-azetidin-2-yl)methoxy]-2-methyl-pyrazol-3-yl]pyrazolo[1,5-a]pyridin-2-yl]cyclopropanecarboxamide] | 230
CN1CC[C@@H]1COc1cnn(C)c1-c1ccn2nc(NC(=O)[C@H]3C[C@@H]3C(F)(F)F)cc2c1 (racemic) [Example 70, trans-N-[5-[2-methyl-4-[((2R)-1-methylazetidin-2-yl)methoxy]pyrazol-3-yl]pyrazolo[1,5-a]pyridin-2-yl]-2-(trifluoromethyl)cyclopropanecarboxamide] | 219
CN1CC[C@@H]1COc1cnn(C)c1-c1ccn2nc(NC(=O)[C@H]3C[C@@H]3c3ccccc3)cc2c1 (racemic) [Example 71, trans-N-[5-[2-methyl-4-[((2R)-1-methylazetidin-2-yl)methoxy]pyrazol-3-yl]pyrazolo[1,5-a]pyridin-2-yl]-2-phenyl-cyclopropanecarboxamide] | 22.3
COC1(COc2cnn(C(F)F)c2-c2ccn3nc(Nc4cc(C)nc(C)n4)cc3c2)CCNC1 (racemic) [Example 100, (RS)-5-[2-(difluoromethyl)-4-[(3-methoxypyrrolidin-3-yl)methoxy]pyrazol-3-yl]-N-(2,6-dimethylpyrimidin-4-yl)pyrazolo[1,5-a]pyridin-2-amine] | 12.4
Cc1cc(Nc2cc3cc(-c4c(OCC5(F)CCNC5)cnn4C(F)F)ccn3n2)nc(C)n1 (racemic) [Example 101, (RS)-5-[2-(difluoromethyl)-4-[(3-fluoropyrrolidin-3-yl)methoxy]pyrazol-3-yl]-N-(2,6-dimethylpyrimidin-4-yl)pyrazolo[1,5-a]pyridin-2-amine] | 7.2
Cn1ncc(COC2CNCC2(F)F)c1-c1ccn2nc(NC(=O)C3CC3)cc2c1 (racemic) [Example 184, (RS)—N-[5-[4-[(4,4-difluoropyrrolidin-3-yl)oxymethyl]-2-methyl-pyrazol-3-yl]pyrazolo[1,5-a]pyridin-2-yl]cyclopropanecarboxamide] | 14.5
COC1CNC[C@@H]1Oc1noc(C)c1-c1ccn2nc(NC(=O)C3CC3)cc2c1 (mixture of isomers) [Example 200, (rac-cis)-N-[5-[3-(4-methoxypyrrolidin-3-yl)oxy-5-methyl-isoxazol-4-yl]pyrazolo[1,5-a]pyridin-2-yl]cyclopropanecarboxamide] | 29.4
COC1(COc2noc(C)c2-c2ccn3nc(NC(=O)C4CC4)cc3c2)CCNC1 (racemic) [Example 205, (RS)—N-[5-[3-[(3-methoxypyrrolidin-3-yl)methoxy]-5-methyl-isoxazol-4-yl]pyrazolo[1,5-a]pyridin-2-yl]cyclopropanecarboxamide] | 23.5
Cc1onc(O[C@@H]2CNC[C@@H]2F)c1-c1ccn2nc(NC(=O)C3CC3)cc2c1 (racemic) [Example 208, (rac-cis)-N-[5-[3-(4-fluoropyrrolidin-3-yl)oxy-5-methyl-isoxazol-4-yl]pyrazolo[1,5-a]pyridin-2-yl]cyclopropanecarboxamide] | 11.5
CCN1CC2(CC2)[C@@H]1COc1cnn(C)c1-c1ccn2nc(NC(=O)C3CC3)cc2c1 (single isomer, unassigned) [Example 16, (*R)—N-(5-(4-((5-Ethyl-5-azaspiro[2.3]hexan-4-yl)methoxy)-1-methyl-1H-pyrazol-5-yl)pyrazolo[1,5-a]pyridin-2-yl)cyclopropanecarboxamide] | 219

The remaining lines, values ahead:

IC50 [nM] | Compound
113 | CN1CC[C@@H]1COc1cnn(C)c1-c1ccn2nc(NC(=O)[C@@H]3C[C@@H]3c3ccccc3)cc2c1 (mixture of isomers) [Example 473, cis-N-[5-[2-methyl-4-[(1-methylazetidin-2-yl)methoxy]pyrazol-3-yl]pyrazolo[1,5-a]pyridin-2-yl]-2-phenyl-cyclopropanecarboxamide]
32.5 | Cc1onc(O[C@@H]2CCNC[C@@H]2F)c1-c1ccn2nc(NC(=O)C3CC3)cc2c1 (racemic) [Example 211, (rac-cis)-N-[5-[3-[(3-fluoro-4-piperidyl)oxy]-5-methyl-isoxazol-4-yl]pyrazolo[1,5-a]pyridin-2-yl]cyclopropanecarboxamide]
46.4 | Cc1onc(O[C@H]2C[C@H]3C[C@@H]2CN3)c1-c1ccn2nc(NC(=O)C3CC3)cc2c1 (racemic) [Example 212, Exo-Rac-N-[5-[3-(2-azabicyclo[2.2.1]heptan-5-yloxy)-5-methyl-isoxazol-4-yl]pyrazolo[1,5-a]pyridin-2-yl]cyclopropanecarboxamide]
28.7 | Cn1ncc(OCC2NCC23CC3)c1-c1ccn2nc(NC(=O)C3CC3)cc2c1 (racemic) [Example 240, (RS)—N-[5-[4-(5-azaspiro[2.3]hexan-6-ylmethoxy)-2-methyl-pyrazol-3-yl]pyrazolo[1,5-a]pyridin-2-yl]cyclopropanecarboxamide]
2.4 | Cc1cc(Nc2cc3cc(-c4c(CO[C@@H]5CN(C)C[C@H]5C)cnn4C)ccn3n2)nc(C)n1 (racemic) [Example 364, Rac-N-(2,6-dimethylpyrimidin-4-yl)-5-[4-[(1,4-dimethylpyrrolidin-3-yl)oxymethyl]-2-methyl-pyrazol-3-yl]pyrazolo[1,5-a]pyridin-2-amine]
4.3 | Cc1cnc(Nc2cc3cc(-c4c(COC5CN(C)CC5C)cnn4C)ccn3n2)cn1 (racemic) [Example 376, Rac-CIS-5-[4-[(1,4-dimethylpyrrolidin-3-yl)oxymethyl]-2-methyl-pyrazol-3-yl]-N-(5-methylpyrazin-2-yl)pyrazolo[1,5-a]pyridin-2-amine]
170 | CO[C@@H]1CN(C)C[C@@H]1Oc1cnn(C)c1-c1ccn2nc(NC(=O)C3CC3)cc2c1 (racemic) [Example 409, (rac-cis)-N-[5-[4-(4-methoxy-1-methyl-pyrrolidin-3-yl)oxy-2-methyl-pyrazol-3-yl]pyrazolo[1,5-a]pyridin-2-yl]cyclopropanecarboxamide]
116 | CO[C@H]1CNC[C@@H]1Oc1cnn(C)c1-c1ccn2nc(NC(=O)C3CC3)cc2c1 (racemic) [Example 421, (rac-trans)-N-[5-[4-(4-methoxypyrrolidin-3-yl)oxy-2-methyl-pyrazol-3-yl]pyrazolo[1,5-a]pyridin-2-yl]cyclopropanecarboxamide]
24.5 | Cc1cc(Nc2cc3cc(-c4c(OC[C@@H]5CCO[C@@H]5C)cnn4C)ccn3n2)nc(C)n1 (relative stereo) [Example 295, (2*R, 3*S)—N-(2,6-dimethylpyrimidin-4-yl)-5-[2-methyl-4-[(2-methyltetrahydrofuran-3-yl)methoxy]pyrazol-3-yl]pyrazolo[1,5-a]pyridin-2-amine]
67.8 | CO[C@@H]1CN(C)C[C@@H]1Oc1noc(C)c1-c1ccn2nc(NC(=O)C3CC3)cc2c1 (relative stereo) [Example 317, *S, *R—N-[5-[3-(4-methoxy-1-methyl-pyrrolidin-3-yl)oxy-5-methyl-isoxazol-4-yl]pyrazolo[1,5-a]pyridin-2-yl]cyclopropanecarboxamide]
67.9 | Cn1ncc(OC[C@H]2CCN2C[C@@H]2CCCO2)c1-c1ccn2nc(NC(=O)C3CC3)cc2c1 (relative stereo) [Example 353, (*S)—N-[5-[2-methyl-4-[[1-(tetrahydrofuran-2-ylmethyl)azetidin-2-yl]methoxy]pyrazol-3-yl]pyrazolo[1,5-a]pyridin-2-yl]cyclopropanecarboxamide]
1.3 | Cc1cc(Nc2cc3cc(-c4c(CO[C@@H]5CN(C)C[C@H]5C)cnn4C)ccn3n2)nc(C)n1 (relative stereo) [Example 365, Trans-*R, *S—N-(2,6-dimethylpyrimidin-4-yl)-5-[4-[(1,4-dimethylpyrrolidin-3-yl)oxymethyl]-2-methyl-pyrazol-3-yl]pyrazolo[1,5-a]pyridin-2-amine]
1.6 | Cc1cc(Nc2cc3cc(-c4c(CO[C@@H]5CN(C)C[C@H]5C)cnn4C)ccn3n2)nc(C)n1 (relative stereo) [Example 366, Trans-*S, *R—N-(2,6-dimethylpyrimidin-4-yl)-5-[4-[(1,4-dimethylpyrrolidin-3-yl)oxymethyl]-2-methyl-pyrazol-3-yl]pyrazolo[1,5-a]pyridin-2-amine]
3.1 | Cc1cnc(Nc2cc3cc(-c4c(CO[C@@H]5CN(C)C[C@@H]5C)cnn4C)ccn3n2)cn1 (relative stereo) [Example 380, CIS—*S, *S-5-[4-[(1,4-dimethylpyrrolidin-3-yl)oxymethyl]-2-methyl-pyrazol-3-yl]-N-(5-methylpyrazin-2-yl)pyrazolo[1,5-a]pyridin-2-amine]
